Read-outs that look alike come from different tables or passages of the source.
Key:
[1] = target: T1, ABL1(Q252H)-phosphorylated (Homo sapiens, UniProt P00519, Q252H); experiment: KINOMEscan; type: binding; conditions: read-out: Percent Control
T1 construct: purchased Eurofins DiscoverX KINOMEscan (scanMAX 468)

ADCK4 = target: T2, ADCK4 (Homo sapiens, UniProt Q96D53); experiment: KINOMEscan; type: binding; conditions: read-out: Percent Control
T2 construct: purchased Eurofins DiscoverX KINOMEscan (scanMAX 468)

AMPK-alpha1 = target: T3, AMPK-alpha1 (Homo sapiens, UniProt Q13131); experiment: KINOMEscan; type: binding; conditions: read-out: Percent Control
T3 construct: purchased Eurofins DiscoverX KINOMEscan (scanMAX 468)

ASK1 = target: T4, ASK1 (Homo sapiens, UniProt Q99683); experiment: KINOMEscan; type: binding; conditions: read-out: Percent Control
T4 construct: purchased Eurofins DiscoverX KINOMEscan (scanMAX 468)

CAMK2D = target: T5, CAMK2D (Homo sapiens, UniProt Q13557); experiment: KINOMEscan; type: binding; conditions: read-out: Percent Control
T5 construct: purchased Eurofins DiscoverX KINOMEscan (scanMAX 468)

CSF1R = target: T6, CSF1R (Homo sapiens, UniProt P07333); experiment: KINOMEscan; type: binding; conditions: read-out: Percent Control
T6 construct: purchased Eurofins DiscoverX KINOMEscan (scanMAX 468)

CSNK1G1 = target: T7, CSNK1G1 (Homo sapiens, UniProt Q9HCP0); experiment: KINOMEscan; type: binding; conditions: read-out: Percent Control
T7 construct: purchased Eurofins DiscoverX KINOMEscan (scanMAX 468)

EGFR(G719C) = target: T8, EGFR(G719C) (Homo sapiens, UniProt P00533, G719C); experiment: KINOMEscan; type: binding; conditions: read-out: Percent Control
T8 construct: purchased Eurofins DiscoverX KINOMEscan (scanMAX 468)

[2] = target: T9, EGFR(L747-S752del, P753S) (Homo sapiens, UniProt P00533, DEL747-752/P753S); experiment: KINOMEscan; type: binding; conditions: read-out: Percent Control
T9 construct: purchased Eurofins DiscoverX KINOMEscan (scanMAX 468)

EGFR(L861Q) = target: T10, EGFR(L861Q) (Homo sapiens, UniProt P00533, L861Q); experiment: KINOMEscan; type: binding; conditions: read-out: Percent Control
T10 construct: purchased Eurofins DiscoverX KINOMEscan (scanMAX 468)

FGFR1 = target: T11, FGFR1 (Homo sapiens, UniProt P11362); experiment: KINOMEscan; type: binding; conditions: read-out: Percent Control
T11 construct: purchased Eurofins DiscoverX KINOMEscan (scanMAX 468)

FGFR4 = target: T12, FGFR4 (Homo sapiens, UniProt P22455); experiment: KINOMEscan; type: binding; conditions: read-out: Percent Control
T12 construct: purchased Eurofins DiscoverX KINOMEscan (scanMAX 468)

[3] = target: T13, JAK3(JH1domain-catalytic) (Homo sapiens, UniProt P52333); experiment: KINOMEscan; type: binding; conditions: read-out: Percent Control
T13 construct: JAK3(JH1domain-catalytic); purchased Eurofins DiscoverX KINOMEscan (scanMAX 468)

JNK3 = target: T14, JNK3 (Homo sapiens, UniProt P53779); experiment: KINOMEscan; type: binding; conditions: read-out: Percent Control
T14 construct: purchased Eurofins DiscoverX KINOMEscan (scanMAX 468)

LATS1 = target: T15, LATS1 (Homo sapiens, UniProt O95835); experiment: KINOMEscan; type: binding; conditions: read-out: Percent Control
T15 construct: purchased Eurofins DiscoverX KINOMEscan (scanMAX 468)

LKB1 = target: T16, LKB1 (Homo sapiens, UniProt Q15831); experiment: KINOMEscan; type: binding; conditions: read-out: Percent Control
T16 construct: purchased Eurofins DiscoverX KINOMEscan (scanMAX 468)

MARK3 = target: T17, MARK3 (Homo sapiens, UniProt P27448); experiment: KINOMEscan; type: binding; conditions: read-out: Percent Control
T17 construct: purchased Eurofins DiscoverX KINOMEscan (scanMAX 468)

MST1R = target: T18, MST1R (Homo sapiens, UniProt Q04912); experiment: KINOMEscan; type: binding; conditions: read-out: Percent Control
T18 construct: purchased Eurofins DiscoverX KINOMEscan (scanMAX 468)

NEK11 = target: T19, NEK11 (Homo sapiens, UniProt Q8NG66); experiment: KINOMEscan; type: binding; conditions: read-out: Percent Control
T19 construct: purchased Eurofins DiscoverX KINOMEscan (scanMAX 468)

NEK4 = target: T20, NEK4 (Homo sapiens, UniProt P51957); experiment: KINOMEscan; type: binding; conditions: read-out: Percent Control
T20 construct: purchased Eurofins DiscoverX KINOMEscan (scanMAX 468)

PFPK5(P.falciparum) = target: T21, PFPK5(P.falciparum) (Plasmodium falciparum, UniProt P61075); experiment: KINOMEscan; type: binding; conditions: read-out: Percent Control
T21 construct: purchased Eurofins DiscoverX KINOMEscan (scanMAX 468)

PIK3CA(E542K) = target: T22, PIK3CA(E542K) (Homo sapiens, UniProt P42336, E542K); experiment: KINOMEscan; type: binding; conditions: read-out: Percent Control
T22 construct: purchased Eurofins DiscoverX KINOMEscan (scanMAX 468)

PIK3CA(I800L) = target: T23, PIK3CA(I800L) (Homo sapiens, UniProt P42336, I800L); experiment: KINOMEscan; type: binding; conditions: read-out: Percent Control
T23 construct: purchased Eurofins DiscoverX KINOMEscan (scanMAX 468)

PIK3CA(Q546K) = target: T24, PIK3CA(Q546K) (Homo sapiens, UniProt P42336, Q546K); experiment: KINOMEscan; type: binding; conditions: read-out: Percent Control
T24 construct: purchased Eurofins DiscoverX KINOMEscan (scanMAX 468)

PKNB(M.tuberculosis) = target: T25, PKNB(M.tuberculosis) (Mycobacterium tuberculosis, UniProt P9WI81); experiment: KINOMEscan; type: binding; conditions: read-out: Percent Control
T25 construct: purchased Eurofins DiscoverX KINOMEscan (scanMAX 468)

RIPK1 = target: T26, RIPK1 (Homo sapiens, UniProt Q13546); experiment: KINOMEscan; type: binding; conditions: read-out: Percent Control
T26 construct: purchased Eurofins DiscoverX KINOMEscan (scanMAX 468)

ROS1 = target: T27, ROS1 (Homo sapiens, UniProt P08922); experiment: KINOMEscan; type: binding; conditions: read-out: Percent Control
T27 construct: purchased Eurofins DiscoverX KINOMEscan (scanMAX 468)

[4] = target: T28, RPS6KA5(Kin.Dom.2-C-terminal) (Homo sapiens, UniProt O75582); experiment: KINOMEscan; type: binding; conditions: read-out: Percent Control
T28 construct: RPS6KA5(Kin.Dom.2-C-terminal); purchased Eurofins DiscoverX KINOMEscan (scanMAX 468)

[5] = target: T29, RSK2(Kin.Dom.2-C-terminal) (Homo sapiens, UniProt P51812); experiment: KINOMEscan; type: binding; conditions: read-out: Percent Control
T29 construct: RSK2(Kin.Dom.2-C-terminal); purchased Eurofins DiscoverX KINOMEscan (scanMAX 468)

SRMS = target: T30, SRMS (Homo sapiens, UniProt Q9H3Y6); experiment: KINOMEscan; type: binding; conditions: read-out: Percent Control
T30 construct: purchased Eurofins DiscoverX KINOMEscan (scanMAX 468)

SRPK3 = target: T31, SRPK3 (Homo sapiens, UniProt Q9UPE1); experiment: KINOMEscan; type: binding; conditions: read-out: Percent Control
T31 construct: purchased Eurofins DiscoverX KINOMEscan (scanMAX 468)

TAOK2 = target: T32, TAOK2 (Homo sapiens, UniProt Q9UL54); experiment: KINOMEscan; type: binding; conditions: read-out: Percent Control
T32 construct: purchased Eurofins DiscoverX KINOMEscan (scanMAX 468)

TIE2 = target: T33, TIE2 (Homo sapiens, UniProt Q02763); experiment: KINOMEscan; type: binding; conditions: read-out: Percent Control
T33 construct: purchased Eurofins DiscoverX KINOMEscan (scanMAX 468)

TLK1 = target: T34, TLK1 (Homo sapiens, UniProt Q9UKI8); experiment: KINOMEscan; type: binding; conditions: read-out: Percent Control
T34 construct: purchased Eurofins DiscoverX KINOMEscan (scanMAX 468)

TNNI3K = target: T35, TNNI3K (Homo sapiens, UniProt Q59H18); experiment: KINOMEscan; type: binding; conditions: read-out: Percent Control
T35 construct: purchased Eurofins DiscoverX KINOMEscan (scanMAX 468)

WEE1 = target: T36, WEE1 (Homo sapiens, UniProt P30291); experiment: KINOMEscan; type: binding; conditions: read-out: Percent Control
T36 construct: purchased Eurofins DiscoverX KINOMEscan (scanMAX 468)

WNK2 = target: T37, WNK2 (Homo sapiens, UniProt Q9Y3S1); experiment: KINOMEscan; type: binding; conditions: read-out: Percent Control
T37 construct: purchased Eurofins DiscoverX KINOMEscan (scanMAX 468)

YES = target: T38, YES (Homo sapiens, UniProt P07947); experiment: KINOMEscan; type: binding; conditions: read-out: Percent Control
T38 construct: purchased Eurofins (KINOMEscan, DiscoverX)

Hs_PIM1 = target: T39, Hs_PIM1 (Homo sapiens, UniProt P11309); set-up: method as in ref 13 (a number printed in a supplementary file, which may have a reference list of its own: not looked up in the article's list); conditions: DB18, cited from earlier work
T39 construct: host or cells: Sf9 insect cells (baculovirus)
T39 sequence (P11309 whole entry): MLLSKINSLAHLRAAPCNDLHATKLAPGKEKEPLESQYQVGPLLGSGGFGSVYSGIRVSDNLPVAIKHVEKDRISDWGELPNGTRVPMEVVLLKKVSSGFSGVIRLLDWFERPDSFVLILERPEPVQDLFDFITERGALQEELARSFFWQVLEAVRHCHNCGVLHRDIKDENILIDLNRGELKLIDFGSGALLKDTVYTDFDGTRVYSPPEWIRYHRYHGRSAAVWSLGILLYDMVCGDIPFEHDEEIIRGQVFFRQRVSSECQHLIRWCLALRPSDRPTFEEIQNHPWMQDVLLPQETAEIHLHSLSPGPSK

T36 sequence (P30291 whole entry): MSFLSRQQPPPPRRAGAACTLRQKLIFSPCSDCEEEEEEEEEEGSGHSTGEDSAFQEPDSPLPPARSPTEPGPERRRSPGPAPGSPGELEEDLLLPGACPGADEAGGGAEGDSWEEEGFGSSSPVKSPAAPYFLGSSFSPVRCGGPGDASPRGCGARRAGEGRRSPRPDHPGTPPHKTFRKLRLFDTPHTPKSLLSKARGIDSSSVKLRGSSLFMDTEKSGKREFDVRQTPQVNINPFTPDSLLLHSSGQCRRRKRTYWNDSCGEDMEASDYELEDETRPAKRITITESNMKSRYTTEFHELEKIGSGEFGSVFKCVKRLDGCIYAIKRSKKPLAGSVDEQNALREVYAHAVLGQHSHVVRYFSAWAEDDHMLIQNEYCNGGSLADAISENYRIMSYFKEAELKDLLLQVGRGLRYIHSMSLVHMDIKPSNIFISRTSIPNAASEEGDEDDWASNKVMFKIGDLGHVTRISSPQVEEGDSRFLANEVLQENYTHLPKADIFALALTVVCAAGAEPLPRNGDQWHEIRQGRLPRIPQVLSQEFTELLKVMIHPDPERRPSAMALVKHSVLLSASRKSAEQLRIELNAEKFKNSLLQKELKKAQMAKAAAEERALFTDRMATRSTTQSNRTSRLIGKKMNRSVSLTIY
T20 sequence (P51957 whole entry): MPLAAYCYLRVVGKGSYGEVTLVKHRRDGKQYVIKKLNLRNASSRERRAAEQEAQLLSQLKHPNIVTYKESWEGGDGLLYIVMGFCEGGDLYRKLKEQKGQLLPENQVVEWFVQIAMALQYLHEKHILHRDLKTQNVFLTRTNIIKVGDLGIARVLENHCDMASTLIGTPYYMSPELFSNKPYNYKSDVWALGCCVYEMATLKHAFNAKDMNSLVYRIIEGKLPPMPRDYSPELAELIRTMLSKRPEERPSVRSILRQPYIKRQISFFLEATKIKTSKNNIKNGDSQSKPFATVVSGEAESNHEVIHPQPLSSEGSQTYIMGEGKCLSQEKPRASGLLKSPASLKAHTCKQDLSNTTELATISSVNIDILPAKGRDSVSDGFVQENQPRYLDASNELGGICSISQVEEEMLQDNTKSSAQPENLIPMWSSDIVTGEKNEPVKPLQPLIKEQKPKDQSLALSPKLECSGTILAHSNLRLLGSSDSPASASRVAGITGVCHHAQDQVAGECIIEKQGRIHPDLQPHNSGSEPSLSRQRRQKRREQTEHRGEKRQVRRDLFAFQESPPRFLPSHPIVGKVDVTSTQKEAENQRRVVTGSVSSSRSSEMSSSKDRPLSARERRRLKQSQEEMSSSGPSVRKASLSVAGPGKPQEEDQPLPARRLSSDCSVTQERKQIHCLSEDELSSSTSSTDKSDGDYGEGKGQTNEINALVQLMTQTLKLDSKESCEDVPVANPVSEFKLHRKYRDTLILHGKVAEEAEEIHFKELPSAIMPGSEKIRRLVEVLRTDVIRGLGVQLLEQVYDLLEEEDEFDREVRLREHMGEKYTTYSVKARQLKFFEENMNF
T9 sequence (P00533 with tags, fused parts or gaps DEL747-752/P753S limits assumed): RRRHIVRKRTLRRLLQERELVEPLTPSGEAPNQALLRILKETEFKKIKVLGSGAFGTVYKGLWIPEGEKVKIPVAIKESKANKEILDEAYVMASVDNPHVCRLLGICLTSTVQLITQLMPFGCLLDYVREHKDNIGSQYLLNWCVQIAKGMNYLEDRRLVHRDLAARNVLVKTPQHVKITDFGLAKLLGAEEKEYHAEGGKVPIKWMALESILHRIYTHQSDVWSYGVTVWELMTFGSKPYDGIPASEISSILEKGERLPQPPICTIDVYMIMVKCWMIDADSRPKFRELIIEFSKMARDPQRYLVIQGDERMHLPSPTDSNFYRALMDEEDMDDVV
T31 sequence (Q9UPE1 whole entry): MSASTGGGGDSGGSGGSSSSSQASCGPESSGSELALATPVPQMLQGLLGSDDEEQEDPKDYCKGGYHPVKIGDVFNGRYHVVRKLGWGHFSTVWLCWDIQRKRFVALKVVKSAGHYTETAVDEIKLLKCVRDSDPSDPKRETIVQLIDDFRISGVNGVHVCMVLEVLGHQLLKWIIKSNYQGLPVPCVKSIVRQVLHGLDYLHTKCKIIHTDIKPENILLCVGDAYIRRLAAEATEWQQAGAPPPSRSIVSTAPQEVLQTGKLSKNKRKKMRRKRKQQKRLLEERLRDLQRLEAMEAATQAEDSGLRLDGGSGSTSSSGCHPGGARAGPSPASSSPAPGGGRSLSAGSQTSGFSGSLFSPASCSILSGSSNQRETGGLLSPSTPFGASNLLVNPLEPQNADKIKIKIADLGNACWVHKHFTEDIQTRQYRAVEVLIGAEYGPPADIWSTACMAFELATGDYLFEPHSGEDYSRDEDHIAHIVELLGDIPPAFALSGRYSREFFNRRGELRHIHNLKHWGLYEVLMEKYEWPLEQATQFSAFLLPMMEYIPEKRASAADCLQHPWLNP
T10 sequence (P00533 25-1210 L861Q): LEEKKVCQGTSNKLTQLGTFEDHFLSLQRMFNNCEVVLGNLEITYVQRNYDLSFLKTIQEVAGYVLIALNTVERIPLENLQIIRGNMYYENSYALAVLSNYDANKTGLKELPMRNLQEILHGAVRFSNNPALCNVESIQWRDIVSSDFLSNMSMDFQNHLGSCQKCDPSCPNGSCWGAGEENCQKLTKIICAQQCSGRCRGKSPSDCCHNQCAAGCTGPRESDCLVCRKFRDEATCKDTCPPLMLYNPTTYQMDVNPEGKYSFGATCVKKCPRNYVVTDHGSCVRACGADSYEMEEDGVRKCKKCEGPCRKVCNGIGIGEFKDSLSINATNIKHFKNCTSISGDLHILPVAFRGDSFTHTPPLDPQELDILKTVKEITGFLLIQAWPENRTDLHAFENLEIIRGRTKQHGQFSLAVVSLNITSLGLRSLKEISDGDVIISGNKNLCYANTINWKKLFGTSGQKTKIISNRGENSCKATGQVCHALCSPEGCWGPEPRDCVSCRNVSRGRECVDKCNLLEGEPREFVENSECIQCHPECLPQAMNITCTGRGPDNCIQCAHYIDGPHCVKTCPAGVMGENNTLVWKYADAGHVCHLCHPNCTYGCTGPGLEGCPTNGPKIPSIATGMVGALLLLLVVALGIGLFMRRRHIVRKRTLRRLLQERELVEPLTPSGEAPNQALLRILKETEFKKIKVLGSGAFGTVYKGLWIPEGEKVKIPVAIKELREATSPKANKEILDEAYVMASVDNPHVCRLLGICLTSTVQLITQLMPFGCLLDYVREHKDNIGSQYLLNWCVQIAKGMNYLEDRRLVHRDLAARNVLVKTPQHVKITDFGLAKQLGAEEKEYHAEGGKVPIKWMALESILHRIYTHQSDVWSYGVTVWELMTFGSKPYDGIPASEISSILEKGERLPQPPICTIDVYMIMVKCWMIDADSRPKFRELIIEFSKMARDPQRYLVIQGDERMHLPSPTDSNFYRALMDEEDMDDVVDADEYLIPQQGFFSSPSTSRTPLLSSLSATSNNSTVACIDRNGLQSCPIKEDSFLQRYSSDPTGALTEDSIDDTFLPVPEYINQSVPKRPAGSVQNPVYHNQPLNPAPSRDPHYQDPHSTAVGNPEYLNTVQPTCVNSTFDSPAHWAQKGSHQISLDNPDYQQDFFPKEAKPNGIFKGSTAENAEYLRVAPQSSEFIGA
T13 sequence (P52333 813-1124 limits assumed): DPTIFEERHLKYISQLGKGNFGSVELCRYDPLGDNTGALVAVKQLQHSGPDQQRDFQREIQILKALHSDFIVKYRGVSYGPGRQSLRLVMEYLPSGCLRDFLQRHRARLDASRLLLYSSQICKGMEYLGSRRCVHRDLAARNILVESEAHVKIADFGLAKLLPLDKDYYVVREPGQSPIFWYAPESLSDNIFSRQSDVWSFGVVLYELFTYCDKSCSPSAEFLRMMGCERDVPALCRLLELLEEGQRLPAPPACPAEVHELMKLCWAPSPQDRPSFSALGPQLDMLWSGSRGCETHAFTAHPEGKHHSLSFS
T2 sequence (Q96D53 whole entry): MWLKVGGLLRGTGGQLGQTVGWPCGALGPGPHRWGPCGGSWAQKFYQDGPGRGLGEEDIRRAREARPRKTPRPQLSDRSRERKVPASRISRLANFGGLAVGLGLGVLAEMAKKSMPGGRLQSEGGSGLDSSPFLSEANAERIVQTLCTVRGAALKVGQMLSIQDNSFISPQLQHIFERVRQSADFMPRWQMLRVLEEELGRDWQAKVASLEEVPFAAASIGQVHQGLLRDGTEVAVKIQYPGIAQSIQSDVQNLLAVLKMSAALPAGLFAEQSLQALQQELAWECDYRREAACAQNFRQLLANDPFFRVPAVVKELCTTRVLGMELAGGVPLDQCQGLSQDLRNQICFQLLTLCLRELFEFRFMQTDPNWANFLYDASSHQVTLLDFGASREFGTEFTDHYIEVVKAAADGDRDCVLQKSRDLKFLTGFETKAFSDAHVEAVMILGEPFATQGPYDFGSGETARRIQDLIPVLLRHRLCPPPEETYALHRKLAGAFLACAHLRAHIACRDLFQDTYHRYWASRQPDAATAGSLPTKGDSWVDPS

Cc1ccc(-n2cc(COc3cccc4cnc(Nc5cccc(Cl)c5)nc34)nn2)c([N+](=O)[O-])c1 [DB18]
remaining binding at 1 µM [1]: 100% | remaining binding at 1 µM (ADCK4): 100% | remaining binding at 1 µM (AMPK-alpha1): 94% | remaining binding at 1 µM (ASK1): 100% | remaining binding at 1 µM (CAMK2D): 100% | remaining binding at 1 µM (CSF1R): 100% | remaining binding at 1 µM (CSNK1G1): 100% | remaining binding at 1 µM (EGFR(G719C)): 100% | remaining binding at 1 µM [2]: 83% | remaining binding at 1 µM (EGFR(L861Q)): 99% | remaining binding at 1 µM (FGFR1): 100% | remaining binding at 1 µM (FGFR4): 100% | remaining binding at 1 µM [3]: 93% | remaining binding at 1 µM (JNK3): 95% | remaining binding at 1 µM (LATS1): 99% | remaining binding at 1 µM (LKB1): 100% | remaining binding at 1 µM (MARK3): 100% | remaining binding at 1 µM (MST1R): 100% | remaining binding at 1 µM (NEK11): 100% | remaining binding at 1 µM (NEK4): 99% | remaining binding at 1 µM (PFPK5(P.falciparum)): 100% | remaining binding at 1 µM (PIK3CA(E542K)): 80% | remaining binding at 1 µM (PIK3CA(I800L)): 77% | remaining binding at 1 µM (PIK3CA(Q546K)): 96% | remaining binding at 1 µM (PKNB(M.tuberculosis)): 97% | remaining binding at 1 µM (RIPK1): 100% | remaining binding at 1 µM (ROS1): 100% | remaining binding at 1 µM [4]: 100% | remaining binding at 1 µM [5]: 100% | remaining binding at 1 µM (SRMS): 98% | remaining binding at 1 µM (SRPK3): 100% | remaining binding at 1 µM (TAOK2): 98% | remaining binding at 1 µM (TIE2): 100% | remaining binding at 1 µM (TLK1): 100% | remaining binding at 1 µM (TNNI3K): 92% | remaining binding at 1 µM (WEE1): 100% | remaining binding at 1 µM (WNK2): 67% | remaining binding at 1 µM (YES): 100% | % of residual activity Hs_PIM1 (Hs_PIM1; 1 µM): 97% | % of residual activity Hs_PIM1 (Hs_PIM1; 10 µM): 81%
